# From patent US8084466B2, “Bicyclic heteroaryl-substituted imidazoles as modulators of the histamine H4 receptor” (Janssen Pharmaceutica NV, priority 2007, dated 2011)
# Molecular target: T1, human histamine H4 receptor (Homo sapiens, UniProt Q9H3N8)
# T1 construct: expressed in transfected cells; host or cells: SK-N-MC cells or COS7 cells, transient transfection with pH4R; cell membranes
# Assay: Binding Assay on Recombinant Human Histamine H4 Receptor
# Conditions: competition binding with 3H-histamine (5 nM; KD 5 nM), membranes of SK-N-MC or COS7 cells expressing human H4 receptor; average of results; > = highest value tested
# Experimental: Biological Methods: Binding Assay on Recombinant Human Histamine H4 Receptor
# SK-N-MC cells or COS7 cells were transiently transfected with pH4R and grown in 150 cm^2 tissue culture dishes. Cells were washed with saline solution, scraped with a cell scraper and collected by centrifugation (1000 rpm, 5 min). Cell membranes were prepared by homogenization of the cell pellet in 20 mM Tris-HCl with a polytron tissue homogenizer for 10 sec at high speed. Homogenate was centrifuged at 1000 rpm for 5 min at 4° C. The supernatant was then collected and centrifuged at 20,000×g for 25 min at 4° C. The final pellet was resuspended in 50 mM Tris-HCl. Cell membranes were incubated with ^3H-histamine (5-70 nM) in the presence or absence of excess histamine (10,000 nM). Incubation occurred at room temperature for […]. Membranes were harvested by rapid filtration over Whatman GF/C filters and washed 4 times with ice-cold 50 mM Tris HCl. Filters were then dried, mixed with scintillant and counted for radioactivity. SK-N-MC or COS7 cells expressing human histamine H4 receptor were used to measure the affinity of binding of other compounds and their ability to displace ^3H-ligand binding by incubating the above-described reaction in the presence of various concentrations of inhibitor or compound to be tested. For competition binding studies using ^3H-histamine, Ki values were calculated, based on an experimentally determined KD value of 5 nM and a ligand concentration of 5 nM, according to Y.-C.
row,SMILES,Ki [nM]
1,"CC(C)(C)c1ccc2[nH]c(-c3ccc4c(c3)c(Cl)cn4CCCC3CCNCC3)nc2c1 [Example 34, 5-tert-Butyl-2-[3-chloro-1-(3-piperidin-4-yl-propyl)-1H-indol-5-yl]-1H-benzoimidazole]",2000
2,"Cc1c(F)ccc2[nH]c(-c3ccc4c(c3)ncn4CCCC3CCN(C)CC3)nc12 [Example 40, 5-Fluoro-4-methyl-1′-[3-(1-methyl-piperidin-4-yl)-propyl]-1H,1′H-[2,5′]bibenzoimidazolyl]",65
3,"Cc1c(F)ccc2[nH]c(-c3ccc4ncn(CCCC5CCN(C)CC5)c4c3)nc12 [Example 41, 5-Fluoro-4-methyl-3′-[3-(1-methyl-piperidin-4-yl)-propyl]-1H,3′H-[2,5′]bibenzoimidazolyl]",397
4,"Cc1cccc2[nH]c(-c3ccc4c(c3)ncn4CCCCC3CCN(C)CC3)nc12 [Example 42, 4-Methyl-1′-[4-(1-methyl-piperidin-4-yl)-butyl]-1H,1′H-[2.5′]bibenzoimidazolyl]",2000
5,"Cc1cccc2[nH]c(-c3ccc4ncn(CCCCC5CCN(C)CC5)c4c3)nc12 [Example 43, 4-Methyl-3′-[4-(1-methyl-piperidin-4-yl)-butyl]-1H,3′H-[2,5′]bibenzoimidazolyl]",1670
6,"Cc1c(F)ccc2[nH]c(-c3ccc4ncn(CCCCC5CCN(C)CC5)c4c3)nc12 [Example 45, 5-Fluoro-4-methyl-3′-[4-(1-methyl-piperidin-4-yl)-butyl]-1H,3′H-[2,5′]bibenzoimidazolyl]",1670
7,"Cc1c(F)ccc2[nH]c(-c3cnc4c(ccn4CCCC4CCN(C)CC4)c3)nc12 [Example 46, 5-Fluoro-4-methyl-2-{1-[3-(1-methyl-piperidin-4-yl)-propyl]-1H-pyrrolo[2,3-b]pyridin-5-yl}-1H-benzoimidazole]",12
8,"Cc1ccc2[nH]c(-c3cnc4c(ccn4CCCC4CCN(C)CC4)c3)nc2c1C [Example 47, 4,5-Dimethyl-2-{1-[3-(1-methyl-piperidin-4-yl)-propyl]-1H-pyrrolo[2,3-b]pyridin-5-yl}-1H-benzoimidazole]",56
9,"CN1CCC(CCCn2ccc3cc(-c4nc5c(F)cc(F)cc5[nH]4)c(Cl)cc32)CC1 [Example 48, 2-{6-Chloro-1-[3-(1-methyl-piperidin-4-yl)-propyl]-1H-indol-5-yl}-4,6-difluoro-1H-benzoimidazole]",1030
10,"Cc1c(F)ccc2[nH]c(-c3cc4ccn(CCCC5CCNCC5)c4cc3Cl)nc12 [Example 49, 2-[6-Chloro-1-(3-piperidin-4-yl-propyl)-1H-indol-5-yl]-5-fluoro-4-methyl-1H-benzoimidazole]",1730
11,"Cc1c(F)ccc2[nH]c(-c3cc4ccn(CCCC5CCN(C)CC5)c4cc3Cl)nc12 [Example 50, 2-{6-Chloro-1-[3-(1-methyl-piperidin-4-yl)-propyl]-1H-indol-5-yl}-5-fluoro-4-methyl-1H-benzoimidazole]",3330
12,"Cc1c(F)ccc2[nH]c(-c3ccc4c(ncn4CCCC4CCN(C)CC4)c3C)nc12 [Example 51, 5-Fluoro-4,4′-dimethyl-1′-[3-(1-methyl-piperidin-4-yl)-propyl]-1H,1′H-[2,5′]bibenzoimidazolyl]",7
13,"Cc1cccc2[nH]c(-c3ccc4c(ncn4CCCC4CCN(C)CC4)c3C)nc12 [Example 53, 4,4′-Dimethyl-1′-[3-(1-methyl-piperidin-4-yl)-propyl]-1H,1′H-[2,5′]bibenzoimidazolyl]",15
14,"Cc1c(Cl)ccc2[nH]c(-c3ccc4c(ncn4CCCC4CCN(C)CC4)c3C)nc12 [Example 54, 5-Chloro-4,4′-dimethyl-1′-[3-(1-methyl-piperidin-4-yl)-propyl]-1H ,1′H-[2,5′]bibenzoimidazolyl]",1
15,"Cc1cc(F)cc2[nH]c(-c3ccc4c(ncn4CCCC4CCN(C)CC4)c3C)nc12 [Example 55, 6-Fluoro-4,4′-dimethyl-1′-[3-(1-methyl-piperidin-4-yl)-proyl]-1H,1′H-[2,5′]bibenzoimidazolyl]",4
16,"Cc1ccc2[nH]c(-c3ccc4c(c3)CCN4CCCC3CCNCC3)nc2c1C [Example 56, 4,5-Dimethyl-2-[1-(3-piperidin-4-yl-propyl)-2,3-dihydro-1H-indol-5-yl]-1H-benzoimidazole]",1900
17,"Cc1c(-c2nc3cc(Cl)ccc3[nH]2)ccc2c1CCN2CCCC1CCN(C)CC1 [Example 58, 5-Chloro-2-{4-methyl-1-[3-(1-methyl-piperidin-4-yl)-propyl]-2,3-dihydro-1H-indol-5-yl}-1H-benzoimidazole]",19
18,"Cc1c(-c2nc3c(C)cc(F)cc3[nH]2)ccc2c1CCN2CCCC1CCN(C)CC1 [Example 59, 6-Fluoro-4-methyl-2-{4-methyl-1-[3-(1-methyl-piperidin-4-yl)-propyl]-2,3-dihydro-1H-dihydro-1H-indol-5-yl}-1H-benzoimidazole]",18
19,Cc1cc(C)c2nc(-c3ccc4c(ccn4CCCC4CCN(C)CC4)c3)[nH]c2c1 [Example 61],135
20,"CC(C)(C)c1ccc2[nH]c(-c3ccc4c(ccn4CCCN4CCNCC4)c3)nc2c1 [Example 63, 5-tert-Butyl-2-[1-(3-piperazin-1-yl-propyl)-1H-indol-5-yl]-1H-benzoimidazole]",1680
21,"Clc1ccc2[nH]c(-c3ccc4c(ccn4CCCN4CCNCC4)c3)nc2c1 [Example 64, 5-Chloro-2-[1-(3-piperazin-1-yl-propyl)-1H-indol-5-yl]-1H-benzoimidazole]",1520
22,"Cc1cccc2[nH]c(-c3cccc4c3ccn4CCCCC3CCNCC3)nc12 [Example 66, 4-Methyl-2-[1-(4-piperidin-4-yl-butyl)-1H-indol-4-yl]-1H-benzoimidazole]",1180

# Next, values leading:
row,Ki [nM],SMILES
1,683,"Cc1c(F)ccc2[nH]c(-c3cccc4c3ccn4CCCCC3CCNCC3)nc12 [Example 35, 5-Fluoro-4-methyl-2-[1-(4-piperidin-4-yl-butyl)-1H-indol-4-yl]-1H-benzoimidazole]"
2,2330,"Clc1cccc2[nH]c(-c3cccc4c3ccn4CCCCC3CCNCC3)nc12 [Example 36, 4-Chloro-2-[1-(4-piperidin-4-yl-butyl)-1H-indol-4-yl]-1H-benzoimidazole]"
3,2230,"Cc1cc(C)c2nc(-c3ccc4ccn(CCCCC5CCNCC5)c4c3)[nH]c2c1 [Example 37, 4,6-Dimethyl-2-[1-(4-piperidin-4-yl-butyl)-1H-indol-6-yl]-1H-benzoimidazole]"
4,1140,"Cc1c(F)ccc2[nH]c(-c3ccc4ccn(CCCCC5CCNCC5)c4c3)nc12 [Example 38, 5-Fluoro4-methyl-2-[1-(4-piperidin-4-yl-butyl)-1H-indol-6-yl]-1H-benzoimidazole]"
5,2920,"CN(C)Cc1cn(CCCCC2CCNCC2)c2ccc(-c3nc4cc(C(C)(C)C)ccc4[nH]3)cc12 [Example 39, [5-(5-tert-Butyl-1H-benzoimidazol-2-yl)-1-(4-piperidin-4-yl-butyl)-1H-indol-3-ylmethyl]-dimethyl-amine]"
6,3000,"Cc1c(F)ccc2[nH]c(-c3ccc4c(c3)ncn4CCCCC3CCN(C)CC3)nc12 [Example 44, 5-Fluoro-4-methyl-1′-[4-(1-methyl-piperidin-4-yl)-butyl]-1H,1′H-[2.5′]bibenzoimidazolyl]"
7,33,"Cc1ccc2[nH]c(-c3ccc4c(ncn4CCCC4CCN(C)CC4)c3C)nc2c1C [Example 52, 5,4′-Trimethyl-1′-[3-(1-methyl-piperidin-4-yl)-propyl]-1H,1′H-[2,5′]bibenzoimidazolyl]"
8,5,"Cc1cc(C)c2nc(-c3ccc4c(c3C)CCN4CCCC3CCN(C)CC3)[nH]c2c1 [Example 57, 4,6-Dimethyl-2-{4-methyl-1-[3-(1-methyl-piperidin-4-yl)-propyl]-2,3-dihydro-1H-indol-5-yl}-1H-benzoimidazole]"
9,91,"Cc1nc2c(ccc3[nH]c(-c4ccc5c(c4C)CCN5CCCC4CCN(C)CC4)nc32)s1 [Example 60, 2-Methyl-7-{4-methyl-1-[3-(1-methyl-piperidin-4-yl)-propyl]-2,3-dihydro-1H-indol-5-yl}-6H-imidazo[4′,5′:3,4]benzo[2,1-d]thiazole]"
10,1310,"Cc1ccc2[nH]c(-c3ccc4c(ccn4CCCN4CCNCC4)c3)nc2c1C [Example 62, 4,5-Dimethyl-2-[1-(3-piperazin-1-yl-propyl)-1H-indol-5-yl]-1H-benzoimidazole]"
11,145,"CN1CCN(CCCn2ccc3cc(-c4nc5cc(Cl)ccc5[nH]4)ccc32)CC1 [Example 65, 5-Chloro-2-{1-[3-(4-methyl-piperazin-1-yl)-propyl]-1H-indol-5-yl}-1H-benzoimidazole]"
12,184,"CN1CCC(CCCCn2ccc3c(-c4nc5cc(F)c(F)cc5[nH]4)cccc32)CC1 [Example 67, 5,6-Difluoro-2-{1-[4-(1-methyl-piperidin-4-yl)-butyl]-1H-indol-4-yl}-1H-1 5 benzoimidazole]"
13,343,"CN1CCC(CCCCn2ccc3c(-c4nc5cc(Cl)ccc5[nH]4)cccc32)CC1 [Example 68, 5-Chloro-2-{1-[4-(1-methyl-piperidin-4-yl)-butyl]-1H-indol-4-yl}-1H-benzoimidazole]"
14,325,"CN1CCC(CCCCn2ccc3c(-c4nc5cc(F)ccc5[nH]4)cccc32)CC1 [Example 69, 5-Fluoro-2-{1-[4-(1-methyl-piperidin-4-yl)-butyl]-1H-indol-4-yl}-1H-benzoimidazole]"
